From ChEMBL document CHEMBL1201862, “PubChem BioAssay data set” (2004)
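Cells were grown in 96-well plates and exposed to each compound for 48 hours at five concentrations; endpoints were interpolated linearly between bracketing concentrations, or set to the highest concentration if not reached. The concentration for 50% growth inhibition is given as GI50.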 Calls of active or inactive are those of the source. Cut-off read from the data, not from the text of the source: active = GI50 up to about 1.1 µM and inactive = higher.

Experiments:
Assay in all cases: NCI-60 cell line screen, 48 h
OVCAR-8 = test system: OVCAR-8
SNB-19 = test system: SNB-19
IGROV-1 = test system: IGROV-1
NCI/ADR-RES = test system: NCI/ADR-RES
SNB-75 = test system: SNB-75
786-0 = test system: 786-0
COLO 205 = test system: COLO 205
UACC-62 = test system: UACC-62
HOP-92 = test system: HOP-92
HCT-116 = test system: HCT-116
BT-549 = test system: BT-549
MDA-N = test system: MDA-N
Malme-3M = test system: Malme-3M
SK-OV-3 = test system: SK-OV-3
A549 = test system: A549
SK-MEL-5 = test system: SK-MEL-5
ACHN = test system: ACHN
UO-31 = test system: UO-31
SK-MEL-2 = test system: SK-MEL-2

Measured: GI50

Cc1ccn2c(=O)cc(-c3ccccc3)nc2c1
inactive: OVCAR-8 > 100 µM | SNB-19 > 100 µM | IGROV-1 > 100 µM | NCI/ADR-RES 72.3 µM | SNB-75 18.3 µM | 786-0 > 100 µM | COLO 205 > 100 µM | UACC-62 18.7 µM | HOP-92 74 µM | HCT-116 > 100 µM | BT-549 > 100 µM | MDA-N > 100 µM | Malme-3M > 100 µM | SK-OV-3 > 100 µM | A549 > 100 µM | SK-MEL-5 > 100 µM | ACHN 71.1 µM

N#C/C(=C/NC(N)=S)C(N)=O
inactive: OVCAR-8 > 100 µM | SNB-19 > 100 µM | IGROV-1 > 100 µM | NCI/ADR-RES > 100 µM | SNB-75 > 100 µM | 786-0 > 100 µM | COLO 205 > 100 µM | HOP-92 > 100 µM | UO-31 > 100 µM | SK-MEL-2 > 100 µM | HCT-116 > 100 µM | BT-549 > 100 µM | MDA-N > 100 µM | SK-OV-3 > 100 µM | A549 > 100 µM | SK-MEL-5 > 100 µM | ACHN > 100 µM

CC1(C)C2CCC(N)(C2)C1O (centres undefined)
inactive: OVCAR-8 > 100 µM | SNB-19 > 100 µM | IGROV-1 > 100 µM | NCI/ADR-RES > 100 µM | SNB-75 > 100 µM | 786-0 > 100 µM | COLO 205 > 100 µM | UACC-62 > 100 µM | HOP-92 > 100 µM | UO-31 > 100 µM | SK-MEL-2 > 100 µM | HCT-116 > 100 µM | BT-549 > 100 µM | MDA-N > 100 µM | SK-OV-3 > 100 µM | A549 > 100 µM | SK-MEL-5 > 100 µM | ACHN > 100 µM

CC1(F)C=CC(=O)C=C1
inactive: OVCAR-8 19.6 µM | SNB-19 > 100 µM | NCI/ADR-RES 17.6 µM | SNB-75 > 100 µM | 786-0 17 µM | COLO 205 > 100 µM | UACC-62 44.9 µM | HOP-92 30.5 µM | UO-31 23.6 µM | SK-MEL-2 > 100 µM | HCT-116 38.4 µM | BT-549 > 100 µM | MDA-N 33.2 µM | Malme-3M 18.4 µM | SK-OV-3 > 100 µM | A549 > 100 µM | SK-MEL-5 > 100 µM | ACHN 59.6 µM

CO[C@H](C)[C@](O)(C(=O)OCC1=CCN2CC[C@@H](O)[C@H]12)C(C)C
inactive: OVCAR-8 > 100 µM | SNB-19 > 100 µM | IGROV-1 > 100 µM | NCI/ADR-RES > 100 µM | SNB-75 > 100 µM | 786-0 > 100 µM | COLO 205 > 100 µM | UACC-62 > 100 µM | HOP-92 > 100 µM | UO-31 > 100 µM | SK-MEL-2 > 100 µM | HCT-116 > 100 µM | BT-549 > 100 µM | MDA-N > 100 µM | SK-OV-3 > 100 µM | A549 > 100 µM | SK-MEL-5 > 100 µM | ACHN 73.3 µM

Cc1ccc2c(c1)C(=O)N1CCC[C@H]1C=N2
inactive: OVCAR-8 23.9 µM | SNB-19 28.2 µM | IGROV-1 14.3 µM | NCI/ADR-RES 21.1 µM | 786-0 27.1 µM | COLO 205 17.6 µM | UACC-62 16.6 µM | HOP-92 25.5 µM | UO-31 5.37 µM | SK-MEL-2 17.5 µM | HCT-116 30 µM | BT-549 17.8 µM | MDA-N 19.2 µM | Malme-3M 18.7 µM | SK-OV-3 42 µM | A549 30.7 µM | SK-MEL-5 11.1 µM | ACHN 15 µM

O=C(c1c(Cl)cc(Cl)cc1Cl)N(Cc1cccnc1)C(=S)N(Cc1cccnc1)C(=O)c1c(Cl)cc(Cl)cc1Cl
inactive: OVCAR-8 4.04 µM | SNB-19 20.2 µM | NCI/ADR-RES 11.4 µM | SNB-75 5.35 µM | 786-0 2.26 µM | COLO 205 4.73 µM | UACC-62 15.1 µM | HOP-92 3.25 µM | UO-31 5.47 µM | SK-MEL-2 12.5 µM | HCT-116 2.91 µM | BT-549 2.98 µM | MDA-N 2.15 µM | Malme-3M 19.5 µM | SK-OV-3 22.2 µM | A549 32.1 µM | SK-MEL-5 10.9 µM | ACHN 19.1 µM

Cc1cnoc1NS(=O)(=O)c1ccc(Nc2nnc(/C=C/c3c(O)ccc4ccccc34)c(=O)n2N)cc1
inactive: OVCAR-8 16.4 µM | SNB-19 65.2 µM | IGROV-1 12.8 µM | NCI/ADR-RES 11.5 µM | SNB-75 20.8 µM | 786-0 35.1 µM | UACC-62 24.5 µM | HOP-92 41.3 µM | UO-31 28.7 µM | HCT-116 22 µM | BT-549 18.7 µM | MDA-N 25.4 µM | Malme-3M 24 µM | SK-OV-3 56.1 µM | A549 35.1 µM | ACHN 22.2 µM

Cn1c(=O)c2c(nc(NCCCCl)n2CC(=O)O)n(C)c1=O
inactive: OVCAR-8 > 100 µM | SNB-19 > 100 µM | IGROV-1 > 100 µM | NCI/ADR-RES > 100 µM | SNB-75 > 100 µM | 786-0 > 100 µM | COLO 205 > 100 µM | UACC-62 > 100 µM | HOP-92 > 100 µM | UO-31 > 100 µM | SK-MEL-2 > 100 µM | HCT-116 > 100 µM | BT-549 > 100 µM | MDA-N > 100 µM | SK-OV-3 > 100 µM | A549 > 100 µM | SK-MEL-5 > 100 µM | ACHN > 100 µM

C=CC1ON(C)CCc2cc(OC)c(OC)cc21 (centres undefined)
inactive: OVCAR-8 > 100 µM | SNB-19 > 100 µM | IGROV-1 > 100 µM | NCI/ADR-RES > 100 µM | SNB-75 > 100 µM | 786-0 > 100 µM | COLO 205 > 100 µM | UACC-62 65.6 µM | HOP-92 > 100 µM | UO-31 > 100 µM | HCT-116 > 100 µM | BT-549 > 100 µM | MDA-N > 100 µM | Malme-3M > 100 µM | A549 > 100 µM | SK-MEL-5 > 100 µM | ACHN > 100 µM

N#Cc1c(Cl)c2ccccc2n2c1nc1ccccc12
inactive: OVCAR-8 21.9 µM | SNB-19 74.6 µM | IGROV-1 13.9 µM | NCI/ADR-RES 23.3 µM | SNB-75 60.4 µM | 786-0 19.7 µM | COLO 205 23.1 µM | UACC-62 43.5 µM | HOP-92 19.7 µM | UO-31 16.1 µM | SK-MEL-2 37.3 µM | HCT-116 18.3 µM | BT-549 71 µM | MDA-N 35 µM | SK-OV-3 87.9 µM | A549 > 100 µM | ACHN 18 µM

CCCc1c2c3ccccc3nc-2nc2ccccn12
inactive: OVCAR-8 71.8 µM | SNB-19 > 100 µM | IGROV-1 63.5 µM | NCI/ADR-RES > 100 µM | SNB-75 > 100 µM | 786-0 28.4 µM | COLO 205 97.7 µM | UACC-62 72.3 µM | HOP-92 36.5 µM | UO-31 56.8 µM | SK-MEL-2 > 100 µM | BT-549 > 100 µM | MDA-N 74.5 µM | Malme-3M 61.7 µM | SK-OV-3 > 100 µM | A549 83.4 µM | SK-MEL-5 > 100 µM | ACHN 46.7 µM

Cc1ccc(C(=O)N/N=C(\N=N\c2ccc(C(=O)O)cc2)c2ccc(N(CCC#N)CCC#N)cc2C)cc1
inactive: OVCAR-8 > 100 µM | SNB-19 > 100 µM | NCI/ADR-RES > 100 µM | SNB-75 43.9 µM | 786-0 > 100 µM | COLO 205 > 100 µM | HOP-92 > 100 µM | UO-31 > 100 µM | SK-MEL-2 > 100 µM | HCT-116 > 100 µM | BT-549 83 µM | MDA-N > 100 µM | SK-OV-3 80.7 µM | A549 > 100 µM | SK-MEL-5 > 100 µM | ACHN > 100 µM

CCOC(=O)/C(C#N)=C/c1coc2cc(C)cc(C)c2c1=O
inactive: OVCAR-8 > 100 µM | SNB-19 > 100 µM | IGROV-1 > 100 µM | NCI/ADR-RES > 100 µM | SNB-75 > 100 µM | 786-0 > 100 µM | COLO 205 > 100 µM | UACC-62 > 100 µM | HOP-92 95.1 µM | UO-31 59 µM | HCT-116 > 100 µM | BT-549 > 100 µM | MDA-N > 100 µM | Malme-3M 45.3 µM | SK-OV-3 > 100 µM | A549 > 100 µM | SK-MEL-5 > 100 µM | ACHN > 100 µM

OC1c2[nH]c3ccccc3c2CCN2CCCCC12 (centres undefined)
inactive: OVCAR-8 > 100 µM | SNB-19 > 100 µM | IGROV-1 > 100 µM | NCI/ADR-RES > 100 µM | SNB-75 59.4 µM | 786-0 > 100 µM | COLO 205 > 100 µM | UACC-62 > 100 µM | HOP-92 51.1 µM | SK-MEL-2 > 100 µM | HCT-116 > 100 µM | BT-549 > 100 µM | MDA-N > 100 µM | Malme-3M > 100 µM | SK-OV-3 > 100 µM | A549 > 100 µM | ACHN > 100 µM

CC(C(N)=O)N(C)C(=O)c1cnc2ccccc2c1 (centres undefined)
inactive: OVCAR-8 > 100 µM | SNB-19 > 100 µM | IGROV-1 > 100 µM | NCI/ADR-RES > 100 µM | SNB-75 > 100 µM | 786-0 > 100 µM | COLO 205 > 100 µM | UACC-62 > 100 µM | HOP-92 > 100 µM | UO-31 > 100 µM | SK-MEL-2 > 100 µM | HCT-116 > 100 µM | BT-549 > 100 µM | MDA-N > 100 µM | Malme-3M > 100 µM | A549 > 100 µM | SK-MEL-5 > 100 µM | ACHN > 100 µM
